From patent US20050256003A1, “Novel herbicides” (priority 2002, published 2005)

System: monocotyledonous and dicotyledonous test plants
Experiment: Post-emergence herbicidal action
Type: in vivo
Design: key: 10=total damage; 0=no action; Ratings of from 10 to 7 (especially from 10 to 8) indicate good to very good herbicidal action
Conditions: about 18 days, rating 0-10
Method: Post-Emergence Herbicidal Action
In a greenhouse, monocotyledonous and dicotyledonous test plants are grown in standard soil in plastic pots and at the 4- to 6-leaf stage are sprayed with an aqueous suspension of the test compounds of formula I prepared from a 25% wettable powder (Example F3, b) according to WO 97/34485) or with an emulsion of the test compounds of formula I prepared from a 25% emulsifiable concentrate (Example F1, c) according to WO 97/34485), in a concentration corresponding to 125 g or 250 g of active ingredient/ha (500 litres of water/ha). The test plants are then grown on in a greenhouse under optimum conditions. After a test duration of about 18 days, the test is evaluated in accordance with a scale of nine ratings (10=total damage, 0=no action). Ratings of from 10 to 7 (especially from 10 to 8) indicate good to very good herbicidal action.

Structure (SMILES)	Post-emergence action, Amaranthus (250 g a.i./ha)	Post-emergence action, Chenopodium (250 g a.i./ha)	Post-emergence action, Echinochloa (250 g a.i./ha)	Post-emergence action, Euphorbia (250 g a.i./ha)	Post-emergence action, Ipomea (250 g a.i./ha)	Post-emergence action, Sinapis (250 g a.i./ha)	Post-emergence action, Stellaria (250 g a.i./ha)	Post-emergence action, Xanthium (250 g a.i./ha)	Post-emergence action, Amaranthus (125 g a.i./ha)	Post-emergence action, Chenopodium (125 g a.i./ha)	Post-emergence action, Echinochloa (125 g a.i./ha)	Post-emergence action, Euphorbia (125 g a.i./ha)	Post-emergence action, Ipomea (125 g a.i./ha)	Post-emergence action, Sinapis (125 g a.i./ha)	Post-emergence action, Stellaria (125 g a.i./ha)	Post-emergence action, Xanthium (125 g a.i./ha)
CCOc1nn(Cc2nc(C(F)(F)F)ccc2C(=O)C2=C(O)CCCC2=O)c(=O)n1C [Compound A1.037]	9	9	4	8	9	8	8	9								
Cc1nn(Cc2nc(C(F)(F)F)ccc2C(=O)C2=C(O)C(C)(C)CC(C)(C)C2=O)c(=O)s1 [Compound A7.009]	4	9	7	7	7	8	7	7								
CCOc1nn(Cc2nc(C(F)(F)F)ccc2C(=O)c2cnn(C)c2O)c(=O)n1C1CC1 [Compound B1.056]	9	8	9	9	10	8	7	0								
CSC(=O)n1c(C)cc(=O)n1Cc1nc(C(F)(F)F)ccc1C(=O)C1=C(O)C(C)(C)C(=O)C(C)(C)C1=O [Compound A8.062]	9	10	9	9	8	9	5	0								
Cn1c(C(F)(F)F)nn(Cc2nc(C(F)(F)Cl)ccc2C(=O)C2=C(O)CCCC2=O)c1=O [Compound A1.001, 2-[6-(Chloro-difluoro-methyl)-3-(2-hydroxy-6-oxo-cyclohex-1-ene-carbonyl)-pyridin-2-ylmethyl]-4-methyl-5-trifluoromethyl-2.4-dihydro-[1.2.4]triazol-3-one]									8	9	4	4	8	8	8	8
O=C1CCCC(O)=C1C(=O)c1ccc(C(F)(F)F)nc1Cn1sc(Cl)cc1=O [Compound A1.115]	9	9	7	8	7	3	9	9								
CCN1C(=O)N(Cc2nc(C(F)(F)F)ccc2C(=O)C2=C(O)CCCC2=O)C(=O)C1C (racemic) [Compound A1.181]	9	8	4	8	8	5	7	8								
